From the PolyMetriX glass transition set
± gives the standard deviation of the reports.

Row | SMILES | glass transition temperature [°C]
1 | *CC(*)c1cc(OC)c(O)c(OC)c1 (repeat unit) | 147.00
2 | *C(=O)Oc1ccc(C2(c3ccc(OC(=O)c4ccc5c(c4)C(=O)N(c4ccc(-c6ccc(N7C(=O)c8ccc(*)cc8C7=O)cc6C)c(C)c4)C5=O)cc3)C3CC4CC(C3)CC2C4)cc1 (repeat unit) | 222.00
3 | *CC(*)OC(=O)c1ccc(OC(C)=O)cc1 (repeat unit) | 76.00
4 | *CC(*)c1nnn[nH]1 (repeat unit) | 72.00
5 | *CC(O)CN(*)c1ccc(/N=N/c2ccc(Cl)cc2)cc1 (repeat unit) | 160.00
6 | *CCN(*)C(=O)c1ccccc1F (repeat unit) | 109.00
7 | */C=C/C(C*)OC (repeat unit) | -10.50
8 | *CCCCCCOc1ccc(C(=O)N(C(=O)c2ccc(O*)cc2)c2cccc3ccccc23)cc1 (repeat unit) | 56.00
9 | *CC(*)(C)C(=O)OCC1CC(NC(=O)OC(C)(C)C)CN1C(=O)OC(C)(C)C (repeat unit) | 127.00
10 | *c1ccc(C(=O)NC(CC)COC(=O)c2ccc(N3C(=O)CC(SCCCCCSC4CC(=O)N(*)C4=O)C3=O)cc2)cc1 (repeat unit) | 91.00
11 | *c1ccc2c(c1)C(=O)N(c1ccc(Oc3ccc(N4C(=O)c5ccc(C(*)O[Si](C)(C)C)cc5C4=O)cc3)cc1)C2=O (repeat unit) | 210.00
12 | *CCCCCCNC(=O)CCP(C)(=O)CCC(=O)N* (repeat unit) | 57.50
13 | *Oc1ccc(C2(c3ccc(Oc4ccc(C(=O)c5cccc6cccc(C(=O)c7ccc(*)cc7)c56)cc4)cc3)c3ccccc3-c3ccccc32)cc1 (repeat unit) | 269.00
14 | *Nc1c(C)c(C)c(C(=O)c2ccc(NC(=O)c3ccc(C(*)=O)cc3)cc2)c(C)c1C (repeat unit) | 366.00
15 | *CC(*)(Cl)C(=O)OCC (repeat unit) [Poly(ethyl a-chloroacrylate) ] | 92 ± 4.8
16 | *NC(C)(CC)C(*)=O (repeat unit) | 74.2
17 | *CC(*)(C)C(=O)Oc1ccc(-c2nnc(-c3ccc(C(C)(C)C)cc3)o2)cc1 (repeat unit) | 156.00
18 | */C(=C(/*)c1ccc([Si](C)(C)C)cc1)c1ccccc1 (repeat unit) | 200.00
19 | *c1ccc(Oc2ccc(C(=O)c3ccc(Oc4ccc(-c5c6c(c(*)c7ccccc57)C(=O)N(CCCCCCCCCCCC)C6=O)cc4)cc3)cc2)cc1 (repeat unit) | 147.00
20 | *Oc1ccc2cc(Oc3ccc(S(=O)(=O)c4ccc(Oc5ccc(C(=O)c6ccc(*)cc6)cc5)cc4)cc3)ccc2c1 (repeat unit) | 199.00
21 | *CC(*)C(=O)OCc1ccccc1 (repeat unit) | 9.2

Row | SMILES | glass transition temperature [°C]
22 | *CC#CC#CCOc1ccc(C(=O)OCCN(CCOC(=O)c2ccc(O*)cc2)c2ccc(/N=N/c3ccc(/N=N/c4cc(C)c([N+](=O)[O-])c(C)c4)cc3)cc2)cc1 (repeat unit) | 115.00
23 | *CCCC1CC(=O)N(*)C(=O)C1 (repeat unit) | 90.00
24 | *c1ccc(Oc2ccc(C(=O)c3ccc(C(=O)c4ccc(Oc5ccc(-c6nc(-c7ccccc7)[nH]c6*)cc5)cc4)cc3)cc2)cc1 (repeat unit) | 248.00
25 | *c1ccc(-c2ccc(-c3ccc4c(c3)C(CCCCCCCC)(CCCCCCCC)c3cc(-c5ccc(*)s5)ccc3-4)s2)cn1 (repeat unit) | 127.50
26 | *CCCOc1ccc(OCCCc2nnc(-c3ccc(-c4nnc(*)o4)cc3)o2)c(C)c1 (repeat unit) | 112.00
27 | *CNC(=O)OCc1ccc(COC(=O)NCc2ccc(C(C)(C)c3ccc(*)o3)o2)o1 (repeat unit) | 55.00
28 | *Oc1ccc(C(c2ccc(Oc3ccc(C(=O)c4ccc(C(c5ccc(C(=O)c6ccc(*)cc6)cc5)(C(F)(F)F)C(F)(F)F)cc4)cc3)cc2)(C(F)(F)F)C(F)(F)F)cc1 (repeat unit) | 185.00
29 | *Oc1ccc(/N=C/c2ccc(N(c3ccccc3)c3ccc(/C=N/c4ccc(*)cc4)cc3)cc2)cc1 (repeat unit) | 162.00
30 | *c1ccc(Oc2ccc(N3C(=O)C(Cl)=C(Oc4ccc(C(C)(C)c5ccc(OC6=C(Cl)C(=O)N(*)C6=O)cc5)cc4)C3=O)cc2)cc1 (repeat unit) | 175.00
31 | *c1ccc(Oc2ccc(NC(=O)c3cccc(C(=O)Nc4ccc(Oc5ccc(-n6c(=O)c7cc8c(=O)n(*)c(=O)c8cc7c6=O)cc5)cc4)c3)cc2)cc1 (repeat unit) | 282.00
32 | *CC(*)C(=O)OCCOC(F)(F)C(F)F (repeat unit) | -22.00
33 | *CCCCCCOC(=O)c1ccc2cc(C(=O)O*)ccc2c1 (repeat unit) | 64.00
34 | *Oc1ccc(Oc2ccc(C(=O)c3ccc(C(=O)c4ccc(*)cc4)c4ccccc34)cc2)cc1 (repeat unit) | 200.03
35 | *CC(F)(F)C1(F)CC(CC(O)(C(F)(F)F)C(F)(F)F)CC1* (repeat unit) | 98.00
36 | *COC1OC(*)C(O)C(O)C1O (repeat unit) | 200.00
37 | *C(=O)c1ccc2c(c1)C(=O)N(c1ccc(Oc3ccc(C(=O)c4ccc(C(=O)c5ccc(Oc6ccc(N7C(=O)c8ccc(*)cc8C7=O)cc6)cc5)cc4)cc3)cc1)C2=O (repeat unit) | 233.00
38 | *CCC[Si](*)(C)CCC[Si](C)(C)C (repeat unit) | -46.00
39 | *c1ccc(-c2nc3cc(-c4ccc5nc(-c6ccccc6)c(-c6ccc(N7C(=O)C8OC9C(=O)N(*)C(=O)C9C8C7=O)cc6)nc5c4)ccc3nc2-c2ccccc2)cc1 (repeat unit) | 230.00
40 | *CC(*)F (repeat unit) [Poly(vinyl fluoride)] | 33.92 ± 10
41 | *Oc1cccc(OC2(F)C(*)(F)C(F)(F)C2(F)F)c1 (repeat unit) | 32.00

Further lines, results first:

Row | glass transition temperature [°C] | SMILES
42 | 217.00 | *Nc1ccc(Cc2ccc(NC(=O)Nc3ccccc3CCc3ccc(NC(*)=O)cc3)cc2)cc1 (repeat unit)
43 | 110.00 | *Oc1ccc(Cc2ccc(OC(=O)c3cc(OCCCCC)cc(C(*)=O)c3)cc2)cc1 (repeat unit)
44 | 105.00 | *CC(*)(C)C(=O)OCCN(CCCC)c1ccc(/N=N/c2ccc(S(=O)(=O)Nc3cc(C)on3)cc2)cc1 (repeat unit)
45 | 277.00 | *Nc1cccc(NC(=O)c2cc(C(*)=O)cc(S(=O)(=O)c3ccccc3)c2)c1 (repeat unit)
46 | 153.00 | *c1ccc(Oc2ccc(C(c3ccc(Oc4ccc(-c5cccc(*)n5)cc4C(F)(F)F)cc3)(C(F)(F)F)C(F)(F)F)cc2)c(C(F)(F)F)c1 (repeat unit)
47 | 275.00 | *Oc1ccc(C2(c3ccc(OC(=O)c4ccc(C(*)=O)cc4)cc3)CCCCC2)cc1 (repeat unit)
48 | 92.00 | *Oc1cc(OCCOC)c(OC(=O)c2ccc(C(*)=O)cc2-c2ccccc2)cc1OCCOC (repeat unit)
49 | 185.00 | *c1cc(OCCCCCCCC)cc(N2C(=O)c3ccc(Oc4ccc5c(c4)C(=O)N(*)C5=O)cc3C2=O)c1 (repeat unit)
50 | 275.00 | *c1ccc(Oc2cc3ccccc3cc2Oc2ccc(N3C(=O)c4ccc(S(=O)(=O)c5ccc6c(c5)C(=O)N(*)C6=O)cc4C3=O)cc2)cc1 (repeat unit)
51 | 42.00 | *Oc1ccc(CC(NC(=O)CCc2ccc(OC(=O)CCCCCCC(*)=O)cc2)C(=O)OCC(C)C)cc1 (repeat unit)
52 | 162.00 | *Oc1ccc(S(=O)(=O)c2ccc(Oc3ccc(/C=N/c4ccc(Oc5ccc(/N=C/c6ccc(*)cc6)cc5)cc4)cc3)cc2)cc1 (repeat unit)
53 | 270.00 | *c1cccc(C(=O)Nc2ccc(Cc3ccc(N4C(=O)c5ccc(S(=O)(=O)c6ccc7c(c6)C(=O)N(c6ccc(Cc8ccc(NC(=O)c9cccc(-c%10nc%11cc(-c%12ccc%13[nH]c(*)nc%13c%12)ccc%11[nH]%10)c9)cc8)cc6)C7=O)cc5C4=O)cc3)cc2)c1 (repeat unit)
54 | 221.00 | *Cc1cc2cc(C(=O)Nc3ccc(Cc4ccc(NC(=O)c5cc6cc(*)c(OC(=O)COc7ccc8ccc(=O)oc8c7)cc6oc5=O)cc4)cc3)c(=O)oc2cc1OC(=O)COc1ccc2ccc(=O)oc2c1 (repeat unit)
55 | 231.00 | *c1c(C)cc(C(c2cccnc2)c2cc(C)c(N3C(=O)CC(Nc4ccc(NC5CC(=O)N(*)C5=O)cc4)C3=O)c(C)c2)cc1C (repeat unit)
56 | 101.00 | *C(=O)OCCOCCOC(=O)c1ccc(N2C(=O)c3ccc(*)cc3C2=O)cc1 (repeat unit)
57 | 430.00 | *c1ccc(-c2nc3cc(-c4ccc5oc(*)nc5c4)ccc3o2)cc1 (repeat unit)
58 | 214.00 | *CN1C(=O)c2ccc(C(c3ccc4c(c3)C(=O)N(Cc3nnc(-c5ccc(-c6nnc(*)o6)cc5)o3)C4=O)(C(F)(F)F)C(F)(F)F)cc2C1=O (repeat unit)
59 | 143.00 | *Oc1ccc(CC(C#N)(Cc2ccc(*)cc2)c2ccccc2)cc1 (repeat unit)
60 | 205.00 | *C(=O)Nc1ccc(S(=O)(=O)c2ccc(NC(=O)c3ccc4c(c3)C(=O)N(c3ccc(NC(=O)Nc5ccc(N6C(=O)c7ccc(*)cc7C6=O)cc5)cc3)C4=O)cc2)cc1 (repeat unit)
61 | -96.00 | *O[Si](C)(C)O[Si](C)(C)O[Si](C)(C)O[Si](C)(C)OC(C)CCC(*)C (repeat unit)
62 | 96.00 | *CCCCCCCCCCCC(=O)Oc1ccc(C2(c3ccc(OC(=O)c4ccc5c(c4)C(=O)N(*)C5=O)cc3)CCCCC2)cc1 (repeat unit)
63 | 49.00 | *CC(*)(C)C(=O)OC(F)(F)C(F)(F)C(F)(F)C(F)(F)C(F)(F)C(F)(F)C(F)(F)C(F)(F)F (repeat unit)
64 | -2.00 | *O[Si](*)(C)CCCCCCOc1ccc(C(=O)Oc2ccc(OC)cc2)cc1 (repeat unit)
65 | 20.00 | *CNC(=O)OCC(OC(=O)NCc1ccc(C(C)(C)c2ccc(*)o2)o1)c1ccco1 (repeat unit)
